We go through one molecule from US20120196918A1, “PREVENTING ISLET INFLAMMATION AND DYSFUNCTION AND MAINTAINING PROPER GLUCOSE LEVELS BY CONTROLLING eIF5A AND ITS HYPUSINATION” (priority 2009, published 2012).

Experiment [1] deals with LPS-treated NOD/Scid-(IL-2Rγ-null) mice. Description: LPS injection model in NOD/Scid-(IL-2Rγ-null) mice. The format is in vivo, mouse. To be noted: GC7 4 mg/kg/day i.p. As for the experimental part:
Because systemic GC7 delivery would be expected to inhibit hypusination in all cells that express DHS, it is unclear if the islet protection afforded by GC7 in vivo is a result of its effects in the islet, the immune cells, or both. In order to clarify this, the IL-1 responses in STZ-treated C57BL/6J animals were assessed by measuring levels of the IL-1-responsive cytokine IL-6. […] No alterations in serum levels of IL13 and Rantes/CCL5 were observed between treatment groups (FIG. 10F). […] To address the role of immune cells more directly, a mouse model was generated to test the role of hypusination in the islet inflammatory response independently of the immune system. Lipopolysaccharide (LPS) is an agent that evokes the NFkB response through activation of the toll-like receptor 4 (TLR4) (48), which is also expressed in pancreatic islets (49). […]
GSIS and IPGTT studies: For GSIS studies using isolated islets, approximately 50 islets or 1×10^6 INS-1 cells per condition were washed and incubated in Krebs-Ringer HEPES-buffered (KRB) solution for one hour at 37° C., and then placed in KRB solution containing 3 mM or 11 mM glucose for one hour. […] Blood glucose was measured from samples taken from the tail vein before intraperitoneal injection of 1 g glucose per kg mouse weight, and at 10, 20, 30, 60, 90, 120, and 180 minutes after glucose administration using an A1phaTrak® glucometer (Abbott). […]

The next experiment deals with iNOS. Description: Cytokine-induced iNOS protein in human islets (immunoblot). The format is cell-based. To be noted: incubation with GC7, cytokines. An excerpt:
eIF5A1 and eIF5A2 are the only proteins known to contain the unique amino acid hypusine at position 50. Hypusine is formed as a posttranslational modification of residue Lys50 in a reaction requiring spermidine and catalyzed by the sequential actions of the enzymes deoxyhypusine synthase (DHS) and deoxyhypusine hydroxylase (DOHH) (Chen, K Y, and Liu, A Y. Biochemistry and function of hypusine formation on eukaryotic initiation factor 5A. Biol Signals. 1997; 6(3):105-109). […] To further investigate the mechanism of eIF5A-regulated translation of Nos2, studies were performed following overnight incubation of cells with mimosine (an inhibitor of DOHH) and GC7 (an inhibitor of DHS). […]
Immunoblot and nitrite and iNOS assays: Whole cell extracts were resolved by electrophoresis on a 4-20% SDS-polyacrylamide gel, followed by immunoblot using anti-eIF5A1, anti-eIF5A2, anti-iNOS, anti-GFP, or anti-actin primary antibodies and fluorophore-labeled secondary antibodies. Immunoblots were visualized using the Li-Cor® Odyssey® system (Li-Cor Biosciences) and quantitated by scanning fluorometry using Odyssey Imaging v. […] Nitrite was quantitated by measuring nitric oxide-derived nitrite from INS-1 cell culture medium using the Griess reagent (Promega) according to the manufacturer's recommendations. iNOS activity was measured using a commercially available kit (Cayman).

As for `NCCCCCCCN=C(N)N` [GC7], in experiment [1] (LPS 20 mg/kg single injection), the “glucose intolerance in IPGTT 3 days after LPS” value is recorded as “no evidence of glucose intolerance”. Further, the “iNOS staining intensity in islets” value in experiment [1] (LPS 20 mg/kg) is “increased iNOS staining intensity in islets of vehicle-treated animals, but not in GC7-treated animals”. In addition, the “iNOS protein levels in human islets” value in the experiment on iNOS is “dose-dependent inhibition”.
